From PubChem BioAssay AID2060337 (Molecular Pharmacology Branch, DTP, NCI, 2025)
pIC50: −log10 of the molar value. Several values for one entry are separate records, joined by “and”; a condition that tells them apart may be missing. Equal values may be shown once.

Tested on: 832693-133-R-J1-PDC multi-cell spheroids, viability
Assay: Anticancer human tumor 832693-133-R-J1-PDC patient-derived head and neck squamous carcinoma cell line growth inhibition [IpAb]
Settings: for viability, T/C: stronger effect = lower value
Description: Combinatorial screen of targeted agents with ipatasertib and abemaciclib in multi-cell type tumor spheroids
A high-throughput screen of multi-cell type tumor spheroids was designed to identify active combinations of targeted small molecules and ipatasertib or abemaciclib. Complex spheroids include a stromal component modeled by human endothelial cells (HUVEC) and fibroblasts modeled by human mesenchymal stem cells (MSCs). The concentration ranges selected for each drug and investigational agent were based upon clinically achievable concentrations if the clinical Cmax of the agent was known.
Compounds. The drugs and investigational agents: ipatasertib (NSC767898), abemaciclib(NSC768073), selumetinib (NSC741078), trametinib (758246), adavosertib (NSC754352), everolimus (NSC733504), sapanisertib (NSC764658), vemurafenib (NSC761431), venetoclax (NSC766270), copanlisib (NSC809693), apelisib (NSC765974), palbociblib (NSC758247), vemurafenib (NSC761431), dabrafenib (NSC764134), ravoxertinib (NSC781343), BMS-387032 (NSC767048), sotorasib (NSC818433), talazoparib (NSC767125) and afursertib (NSC778305), were obtained from the National Cancer Institute (NCI) Developmental Therapeutics Program Chemical Repository. The FDA-approved anticancer drug set is available from the NCI Developmental Therapeutics Program. […] The stock solutions were prepared in dimethyl sulfoxide (DMSO, Sigma-Aldrich, St. Louis, MO, cat. D2650) at 800-fold the tested concentration and stored at -70 degrees C prior to their use. All drugs and investigational agents were tested over a range starting from a high concentration at or near the clinical Cmax and decreasing in half-log increments. If the clinical Cmax for an agent had not been determined, the highest concentration tested was 10 microM.
NCI60 Cell Culture. NCI60 cell lines were obtained from the NCI Developmental Therapeutics Program Tumor Repository. For each lot of cells, the Repository performed Applied Biosystems AmpFLSTR Identifiler testing with PCR amplification to confirm consistency with the published Identifier STR profile for each cell line. Cells were kept in continuous culture for no more than 20 passages. The optimal seeding densities for each of the cell lines at each time point assessed were determined prior to performing the concentration response studies. Briefly, the NCI60 human tumor lines were grown as monolayers in RPMI 1640 medium supplemented with 10% FBS and 2 mmol/L L-glutamine.
An additional 9 lines were from the NCI60 cell line panel including MDA-MB-231 breast carcinoma, MDA-MB-468 breast carcinoma, MCF7 breast carcinoma, Hs578T breast carcinoma, MALME-3M melanoma, SK-MEL-2 melanoma, SK-OV-3 ovarian carcinoma, DU-145 prostate carcinoma, PC-3 prostate carcinoma, all cell lines along with major genetic alterations are listed on Table 2. Pooled donor human umbilical vein endothelial cells (HUVEC, Lonza, cat. CC-2519) and human mesenchymal stem cells (hMSC, Lonza, cat. PT-2501) were purchased from Lonza (Walkersville, MD).
PDMR cell lines were grown in complete medium (DC medium): Dulbecco's modified Eagle's medium (DMEM)/F12 supplemented with 5% fetal bovine serum (FBS), 2 mM L-glutamine, 100 U/mL penicillin and 100 µg/ml streptomycin, 0.4 µg/ml hydrocortisone, 10 ng/ml epidermal growth factor (EGF) recombinant human protein, 24 µg/mL adenine, and 0.1 mg/mL primocin. During culture from frozen stock vials, PDMR cells were cultured in the same medium containing 10 µM Y-27632 (see Table 3). The PDCs were cultured in complete DMEM/F12 media without 10 microM Y-27632 dihydrochloride for at least two passages prior to the screen. The pooled donor HUVEC and hMSC were cultured in endothelial cell growth medium 2 (PromoCell, Heidelberg, Germany, cat. C-22011) and mesenchymal stem cell growth medium 2 (PromoCell, cat. C-28009), respectively. For all experiments, HUVEC and hMSC were used at passages </=5.
[…]

[1] = curve of first compound, second compound 0.1 µM
[2] = curve of first compound, second compound 0.316 µM
[3] = curve of first compound, second compound 1 µM
[4] = curve of first compound, second compound 3.16 µM
[5] = curve of first compound, second compound 10 µM
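Also: spheroids exposed to the drugs for one week before the viability readout.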
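For viability, T/C in this document: 100% = DMSO vehicle control wells.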

`Cn1cnc2c(F)c(Nc3ccc(Br)cc3Cl)c(C(=O)NOCCO)cc21` + CC(C)NCC(C(=O)N1CCN(c2ncnc3c2C(C)CC3O)CC1)c1ccc(Cl)cc1 was tested, and the pIC50 [1] was 7.02, the pIC50 [2] was over 8.02 and the pIC50 [3] was over 8.02. It also gave a pIC50 [4] of over 8.02, a pIC50 [5] of 6.80 and a viability, T/C (second compound 0.1 µM, first compound 0.00949 µM) of 77%. The viability, T/C (second compound 0.1 µM, first compound 0.03 µM) was 66.9%, the viability, T/C (second compound 0.1 µM, first compound 0.0949 µM) was 45.5% and the viability, T/C (second compound 0.1 µM, first compound 0.3 µM) was 38.7%. For the same compound, the viability, T/C (second compound 0.1 µM, first compound 0.949 µM) was 27.1%, the viability, T/C (second compound 0.1 µM, first compound 3 µM) was 14.7% and the viability, T/C (second compound 0.316 µM, first compound 0.00949 µM) was 49.5%. It also gave a viability, T/C (second compound 0.316 µM, first compound 0.03 µM) of 39.9%, a viability, T/C (second compound 0.316 µM, first compound 0.0949 µM) of 33.7% and a viability, T/C (second compound 0.316 µM, first compound 0.3 µM) of 30.6%. It also gave a viability, T/C (second compound 0.316 µM, first compound 0.949 µM) of 17.4%, a viability, T/C (second compound 0.316 µM, first compound 3 µM) of 11.2% and a viability, T/C (second compound 1 µM, first compound 0.00949 µM) of 44.3%. The viability, T/C (second compound 1 µM, first compound 0.03 µM) was 32%, the viability, T/C (second compound 1 µM, first compound 0.0949 µM) was 30.4% and the viability, T/C (second compound 1 µM, first compound 0.3 µM) was 17.7%. For the same compound, the viability, T/C (second compound 1 µM, first compound 0.949 µM) was 12.5%, the viability, T/C (second compound 1 µM, first compound 3 µM) was 8.67% and the viability, T/C (second compound 3.16 µM, first compound 0.00949 µM) was 42.9%. For the same compound, the viability, T/C (second compound 3.16 µM, first compound 0.03 µM) was 35.3%, the viability, T/C (second compound 3.16 µM, first compound 0.0949 µM) was 28.6% and the viability, T/C (second compound 3.16 µM, first compound 0.3 µM) was 22.4%. It also gave a viability, T/C (second compound 3.16 µM, first compound 0.949 µM) of 15.8%, a viability, T/C (second compound 3.16 µM, first compound 3 µM) of 11.9% and a viability, T/C (second compound 10 µM, first compound 0.00949 µM) of 64%. It also gave a viability, T/C (second compound 10 µM, first compound 0.03 µM) of 68.1%, a viability, T/C (second compound 10 µM, first compound 0.0949 µM) of 58.7% and a viability, T/C (second compound 10 µM, first compound 0.3 µM) of 38.7%. The viability, T/C (second compound 10 µM, first compound 0.949 µM) was 14.6% and the viability, T/C (second compound 10 µM, first compound 3 µM) was 4.33%.
With `CCCS(=O)(=O)Nc1ccc(F)c(C(=O)c2c[nH]c3ncc(-c4ccc(Cl)cc4)cc23)c1F` the viability, T/C (compound 0.0316 µM) was 102% and 106%, the viability, T/C (compound 0.1 µM) was 107% and 108% and the viability, T/C (compound 0.316 µM) was 99.7% and 108%. For the same compound, the viability, T/C (compound 1 µM) was 95.7% and 90.7%, the viability, T/C (compound 3.16 µM) was 67.7% and 69.2% and the viability, T/C (compound 10 µM) was 37% and 39.9%. For the same compound, the pIC50 (curve of compound) was 5.21 and 5.18.
`CC1(C)CCC(CN2CCN(c3ccc(C(=O)NS(=O)(=O)c4ccc(NCC5CCOCC5)c([N+](=O)[O-])c4)c(Oc4cnc5[nH]ccc5c4)c3)CC2)=C(c2ccc(Cl)cc2)C1` was tested, and the viability, T/C (compound 0.0316 µM) was 98.5% and 113%, the viability, T/C (compound 0.1 µM) was 98.3% and 122% and the viability, T/C (compound 0.316 µM) was 106% and 107%. The viability, T/C (compound 1 µM) was 108% and 102%, the viability, T/C (compound 3.16 µM) was 110% and 90.5% and the pIC50 (curve of compound) was 5.06 and 5.27.
In the case of `C=CCn1c(=O)c2cnc(Nc3ccc(N4CCN(C)CC4)cc3)nc2n1-c1cccc(C(C)(C)O)n1` + CC(C)NCC(C(=O)N1CCN(c2ncnc3c2C(C)CC3O)CC1)c1ccc(Cl)cc1, the pIC50 [1] was 6.88, the pIC50 [2] was 7.12 and the pIC50 [3] was 7.45. It also gave a pIC50 [4] of over 7.50, a pIC50 [5] of 7.37 and a viability, T/C (second compound 0.1 µM, first compound 0.0316 µM) of 86%. The viability, T/C (second compound 0.1 µM, first compound 0.1 µM) was 58%, the viability, T/C (second compound 0.1 µM, first compound 0.316 µM) was 25.8% and the viability, T/C (second compound 0.1 µM, first compound 1 µM) was 20.1%. For the same compound, the viability, T/C (second compound 0.1 µM, first compound 3.16 µM) was 22.8%, the viability, T/C (second compound 0.1 µM, first compound 10 µM) was 10.4% and the viability, T/C (second compound 0.316 µM, first compound 0.0316 µM) was 66.1%. It also gave a viability, T/C (second compound 0.316 µM, first compound 0.1 µM) of 45.8%, a viability, T/C (second compound 0.316 µM, first compound 0.316 µM) of 23% and a viability, T/C (second compound 0.316 µM, first compound 1 µM) of 14.6%. The viability, T/C (second compound 0.316 µM, first compound 3.16 µM) was 14.9%, the viability, T/C (second compound 0.316 µM, first compound 10 µM) was 6.24% and the viability, T/C (second compound 1 µM, first compound 0.0316 µM) was 51.7%. It also gave a viability, T/C (second compound 1 µM, first compound 0.1 µM) of 35.5%, a viability, T/C (second compound 1 µM, first compound 0.316 µM) of 18.3% and a viability, T/C (second compound 1 µM, first compound 1 µM) of 12.9%. It also gave a viability, T/C (second compound 1 µM, first compound 3.16 µM) of 11.6%, a viability, T/C (second compound 1 µM, first compound 10 µM) of 3.5% and a viability, T/C (second compound 3.16 µM, first compound 0.0316 µM) of 48.5%. For the same compound, the viability, T/C (second compound 3.16 µM, first compound 0.1 µM) was 36%, the viability, T/C (second compound 3.16 µM, first compound 0.316 µM) was 25.3% and the viability, T/C (second compound 3.16 µM, first compound 1 µM) was 16.1%. The viability, T/C (second compound 3.16 µM, first compound 3.16 µM) was 11.9%, the viability, T/C (second compound 3.16 µM, first compound 10 µM) was 3.31% and the viability, T/C (second compound 10 µM, first compound 0.0316 µM) was 52.4%. The viability, T/C (second compound 10 µM, first compound 0.1 µM) was 43.2%, the viability, T/C (second compound 10 µM, first compound 0.316 µM) was 26.1% and the viability, T/C (second compound 10 µM, first compound 1 µM) was 9.68%. For the same compound, the viability, T/C (second compound 10 µM, first compound 3.16 µM) was 6.52% and the viability, T/C (second compound 10 µM, first compound 10 µM) was 1.52%.
